# Species on record: Rattus norvegicus
# Test: Open TG-GATES - Regimen: Single
# Type: toxicity, organism-based, Sprague-Dawley
# Parameters: regimen Single, gender Male, age 6 weeks
# Conditions: in vivo, iv, 0 mg/kg, route intravenous injection, dose level Control; for APTT / Bas / Eos / Fbg / Hb / Ht / Lym / MCH / MCHC / MCV / Mono / PT / Plat / RBC / Ret / WBC: tissue Blood; for KIDNEY_L / KIDNEY_R / KIDNEY_TOTAL: tissue Kidney; for LIVER: tissue Liver; for ALP / ALT / AST / BUN / CRE / Ca / Cl / DBIL / GLC / IP / K / LDH / Na / PL / RALB / TBIL / TC / TG / TP / gamma-GTP: tissue Plasma
compound,measurement,setting,value
CC(=O)OCC1=C(C(=O)O)N2C(=O)[C@@H](NC(=O)Cc3cccs3)[C@H]2SC1 [CEPHALOTHIN],TERMINAL_BW,3 h,214.5 g
same,APTT,3 h,22.3 s
same,Bas,3 h,0%
same,Eos,3 h,0.8%
same,Fbg,3 h,274.6 mg/dL
same,Hb,3 h,13.2 g/dL
same,Ht,3 h,38.5%
same,Lym,3 h,80%
same,MCH,3 h,20.9 pg
same,MCHC,3 h,34.2%
same,MCV,3 h,61.2 fL
same,Mono,3 h,2.8%
same,PT,3 h,16.5 s
same,Plat,3 h,124.3 x10_4/uL
same,RBC,3 h,629.6 x10_4/ul
same,Ret,3 h,6.1%
same,WBC,3 h,84.8 x10_2/uL
same,KIDNEY_L,3 h,1 g
same,KIDNEY_R,3 h,1 g
same,KIDNEY_TOTAL,3 h,2 g
same,LIVER,3 h,10.2 g
same,ALP,3 h,1573.2 IU/L
same,ALT,3 h,46.4 IU/L
same,AST,3 h,85.6 IU/L
same,BUN,3 h,12.4 mg/dL
same,CRE,3 h,0.2 mg/dL
same,Ca,3 h,10.5 mg/dL
same,Cl,3 h,107.4 meq/L
same,DBIL,3 h,0 mg/dL
same,GLC,3 h,176.2 mg/dL
same,IP,3 h,7.6 mg/dL
same,K,3 h,4.3 meq/L
same,LDH,3 h,171.6 IU/L
same,Na,3 h,142 meq/L
same,PL,3 h,117.2 mg/dL
same,RALB,3 h,2.8 g/dL
same,TBIL,3 h,0.016 mg/dL
same,TC,3 h,60.8 mg/dL
same,TG,3 h,69.2 mg/dL
same,TP,3 h,5.1 g/dL
same,gamma-GTP,3 h,1 IU/L
same,TERMINAL_BW,6 h,214.9 g
same,APTT,6 h,22.2 s
same,Bas,6 h,0%
same,Eos,6 h,0.8%
same,Fbg,6 h,279.4 mg/dL
same,Hb,6 h,13.1 g/dL
same,Ht,6 h,38.1%
same,Lym,6 h,74.2%
same,MCH,6 h,21.1 pg
same,MCHC,6 h,34.3%
same,MCV,6 h,61.7 fL
same,Mono,6 h,2.4%
same,PT,6 h,16.2 s
same,Plat,6 h,129.1 x10_4/uL
same,RBC,6 h,618.8 x10_4/ul
same,Ret,6 h,6.4%
same,WBC,6 h,81.7 x10_2/uL
same,KIDNEY_L,6 h,1 g
same,KIDNEY_R,6 h,1 g
same,KIDNEY_TOTAL,6 h,2 g
same,LIVER,6 h,9.1 g
same,ALP,6 h,1313 IU/L
same,ALT,6 h,41.6 IU/L
same,AST,6 h,80 IU/L
same,BUN,6 h,9.2 mg/dL
same,CRE,6 h,0.2 mg/dL
same,Ca,6 h,10.2 mg/dL
same,Cl,6 h,105.4 meq/L
same,DBIL,6 h,0.002 mg/dL
same,GLC,6 h,184.8 mg/dL
same,IP,6 h,9.3 mg/dL
same,K,6 h,4.3 meq/L
same,LDH,6 h,176.2 IU/L
same,Na,6 h,141.4 meq/L
same,PL,6 h,122 mg/dL
same,RALB,6 h,2.8 g/dL
same,TBIL,6 h,0.02 mg/dL
same,TC,6 h,67.8 mg/dL
same,TG,6 h,41 mg/dL
same,TP,6 h,5.1 g/dL
same,gamma-GTP,6 h,1.4 IU/L
same,TERMINAL_BW,9 h,217.3 g
same,APTT,9 h,23.9 s
same,Bas,9 h,0%
same,Eos,9 h,1%
same,Fbg,9 h,305.4 mg/dL
same,Hb,9 h,13.5 g/dL
same,Ht,9 h,39.5%
same,Lym,9 h,81.4%
same,MCH,9 h,21 pg
same,MCHC,9 h,34%
same,MCV,9 h,61.6 fL
same,Mono,9 h,2%
same,PT,9 h,15.7 s
same,Plat,9 h,132.6 x10_4/uL
same,RBC,9 h,641.6 x10_4/ul
same,Ret,9 h,6.4%
same,WBC,9 h,93.1 x10_2/uL
same,KIDNEY_L,9 h,0.9 g
same,KIDNEY_R,9 h,1 g
same,KIDNEY_TOTAL,9 h,1.9 g
same,LIVER,9 h,9 g
same,ALP,9 h,1321.4 IU/L
same,ALT,9 h,37.2 IU/L
same,AST,9 h,81.2 IU/L
same,BUN,9 h,9.2 mg/dL
same,CRE,9 h,0.2 mg/dL
same,Ca,9 h,10.4 mg/dL
same,Cl,9 h,106.2 meq/L
same,DBIL,9 h,0 mg/dL
same,GLC,9 h,186.6 mg/dL
same,IP,9 h,9.6 mg/dL
same,K,9 h,4.3 meq/L
same,LDH,9 h,157.4 IU/L
same,Na,9 h,141.6 meq/L
same,PL,9 h,121.8 mg/dL
same,RALB,9 h,2.9 g/dL
same,TBIL,9 h,0.022 mg/dL
same,TC,9 h,67.4 mg/dL
same,TG,9 h,60 mg/dL
same,TP,9 h,5.3 g/dL
same,gamma-GTP,9 h,1.2 IU/L
same,TERMINAL_BW,24 h,225.8 g
same,APTT,24 h,21 s
same,Bas,24 h,0%
same,Eos,24 h,0.8%
same,Fbg,24 h,302.4 mg/dL
same,Hb,24 h,12.9 g/dL
same,Ht,24 h,37.9%
same,Lym,24 h,79.2%
same,MCH,24 h,21.2 pg
same,MCHC,24 h,33.9%
same,MCV,24 h,62.3 fL
same,Mono,24 h,2.4%
same,PT,24 h,16.5 s
same,Plat,24 h,128.1 x10_4/uL
same,RBC,24 h,607.2 x10_4/ul
same,Ret,24 h,6.3%
same,WBC,24 h,89.6 x10_2/uL
same,KIDNEY_L,24 h,1 g
same,KIDNEY_R,24 h,1 g
same,KIDNEY_TOTAL,24 h,1.9 g
same,LIVER,24 h,10.8 g
same,ALP,24 h,1398.6 IU/L
same,ALT,24 h,44.4 IU/L
same,AST,24 h,76.2 IU/L
same,BUN,24 h,17.2 mg/dL
same,CRE,24 h,0.2 mg/dL
same,Ca,24 h,10.9 mg/dL
same,Cl,24 h,105.8 meq/L
same,DBIL,24 h,0 mg/dL
same,GLC,24 h,189.4 mg/dL
same,IP,24 h,7.3 mg/dL
same,K,24 h,4.5 meq/L
same,LDH,24 h,221 IU/L
same,Na,24 h,142.4 meq/L
same,PL,24 h,145.8 mg/dL
same,RALB,24 h,3 g/dL
same,TBIL,24 h,0.012 mg/dL
same,TC,24 h,74.4 mg/dL
same,TG,24 h,74.6 mg/dL
same,TP,24 h,5.5 g/dL
same,gamma-GTP,24 h,1.4 IU/L
